Experimental data published in ChEMBL document CHEMBL1151875, “Design and synthesis of a novel tyrosine kinase inhibitor template” (Bioorg Med Chem, 2009).

Tests used:
[1] = molecular target: ALK tyrosine kinase receptor (Homo sapiens, UniProt Q9UM73); assay: Inhibition of 6xHis-tagged human NPM-ALK expressed in insect cells
[2] = molecular target: Insulin receptor (Homo sapiens, UniProt P06213); assay: Inhibition of human recombinant IRK
[3] = molecular target: Hepatocyte growth factor receptor (Homo sapiens, UniProt P08581); assay: Inhibition of recombinant MET
[4] = molecular target: Insulin-like growth factor 1 receptor (Homo sapiens, UniProt P08069); assay: Inhibition of recombinant IGFR1
[5] = molecular target: Tyrosine-protein kinase JAK2 (Homo sapiens, UniProt O60674); assay: Inhibition of recombinant JAK2

ALK tyrosine kinase receptor, sequence (Q9UM73 19-1620 limits assumed): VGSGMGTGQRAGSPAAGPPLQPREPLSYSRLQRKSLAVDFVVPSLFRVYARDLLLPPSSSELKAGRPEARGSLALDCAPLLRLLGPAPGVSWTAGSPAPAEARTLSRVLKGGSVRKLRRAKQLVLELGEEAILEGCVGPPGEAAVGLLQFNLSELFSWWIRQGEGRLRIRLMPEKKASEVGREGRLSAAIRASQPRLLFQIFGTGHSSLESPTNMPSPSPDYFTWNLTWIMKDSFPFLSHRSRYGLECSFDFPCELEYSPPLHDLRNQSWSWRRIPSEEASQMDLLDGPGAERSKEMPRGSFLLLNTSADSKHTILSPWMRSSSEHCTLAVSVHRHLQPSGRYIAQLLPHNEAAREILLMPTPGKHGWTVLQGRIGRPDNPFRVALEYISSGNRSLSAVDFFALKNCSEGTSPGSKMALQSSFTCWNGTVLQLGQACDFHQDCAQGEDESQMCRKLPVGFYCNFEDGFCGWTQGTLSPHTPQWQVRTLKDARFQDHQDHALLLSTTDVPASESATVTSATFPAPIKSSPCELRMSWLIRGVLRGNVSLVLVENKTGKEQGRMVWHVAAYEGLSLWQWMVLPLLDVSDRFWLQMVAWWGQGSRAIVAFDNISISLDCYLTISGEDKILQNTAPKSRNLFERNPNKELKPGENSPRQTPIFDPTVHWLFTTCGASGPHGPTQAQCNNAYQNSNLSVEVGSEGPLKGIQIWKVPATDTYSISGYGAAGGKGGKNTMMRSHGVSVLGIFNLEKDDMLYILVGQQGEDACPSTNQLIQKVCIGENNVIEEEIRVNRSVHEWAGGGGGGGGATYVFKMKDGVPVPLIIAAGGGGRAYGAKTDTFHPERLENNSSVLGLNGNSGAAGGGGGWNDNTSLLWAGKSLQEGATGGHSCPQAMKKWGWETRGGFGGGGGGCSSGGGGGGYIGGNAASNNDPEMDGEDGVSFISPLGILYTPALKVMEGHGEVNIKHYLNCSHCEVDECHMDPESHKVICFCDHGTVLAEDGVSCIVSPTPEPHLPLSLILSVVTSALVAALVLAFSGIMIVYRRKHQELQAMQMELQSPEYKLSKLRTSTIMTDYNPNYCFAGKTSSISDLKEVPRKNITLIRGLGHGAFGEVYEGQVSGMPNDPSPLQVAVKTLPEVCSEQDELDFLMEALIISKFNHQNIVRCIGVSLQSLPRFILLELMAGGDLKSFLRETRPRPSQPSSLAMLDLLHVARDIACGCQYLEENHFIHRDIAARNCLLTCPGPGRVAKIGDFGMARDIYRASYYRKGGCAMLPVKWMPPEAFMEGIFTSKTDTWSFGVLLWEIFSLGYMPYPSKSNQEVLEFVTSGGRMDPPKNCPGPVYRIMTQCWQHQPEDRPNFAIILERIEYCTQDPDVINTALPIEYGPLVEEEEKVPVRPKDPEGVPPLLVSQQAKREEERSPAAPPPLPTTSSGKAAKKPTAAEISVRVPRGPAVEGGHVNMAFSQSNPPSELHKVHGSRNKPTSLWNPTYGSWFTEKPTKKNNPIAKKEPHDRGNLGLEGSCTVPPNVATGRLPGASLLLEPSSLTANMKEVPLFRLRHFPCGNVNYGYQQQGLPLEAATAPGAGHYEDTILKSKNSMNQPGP
Insulin receptor, sequence (P06213 28-758 limits assumed): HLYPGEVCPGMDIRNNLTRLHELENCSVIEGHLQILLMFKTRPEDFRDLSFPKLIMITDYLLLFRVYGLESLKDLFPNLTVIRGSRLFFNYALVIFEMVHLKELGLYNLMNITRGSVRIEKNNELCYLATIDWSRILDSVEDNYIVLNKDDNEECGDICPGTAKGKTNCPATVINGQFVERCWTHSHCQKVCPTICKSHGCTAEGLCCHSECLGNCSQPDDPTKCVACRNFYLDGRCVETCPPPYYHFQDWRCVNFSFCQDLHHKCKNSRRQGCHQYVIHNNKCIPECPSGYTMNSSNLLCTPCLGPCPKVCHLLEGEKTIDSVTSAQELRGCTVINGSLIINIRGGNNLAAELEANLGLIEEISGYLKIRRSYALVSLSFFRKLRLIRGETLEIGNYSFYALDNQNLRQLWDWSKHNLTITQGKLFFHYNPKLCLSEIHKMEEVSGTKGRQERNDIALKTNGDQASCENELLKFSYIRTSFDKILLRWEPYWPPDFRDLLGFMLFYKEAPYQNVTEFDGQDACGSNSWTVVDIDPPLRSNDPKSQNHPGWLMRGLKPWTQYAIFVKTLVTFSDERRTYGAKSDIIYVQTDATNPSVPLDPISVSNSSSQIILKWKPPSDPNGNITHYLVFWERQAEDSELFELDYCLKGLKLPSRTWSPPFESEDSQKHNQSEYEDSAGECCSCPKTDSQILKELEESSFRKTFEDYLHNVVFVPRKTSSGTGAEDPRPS
Insulin receptor, sequence (P06213 763-1382 limits assumed): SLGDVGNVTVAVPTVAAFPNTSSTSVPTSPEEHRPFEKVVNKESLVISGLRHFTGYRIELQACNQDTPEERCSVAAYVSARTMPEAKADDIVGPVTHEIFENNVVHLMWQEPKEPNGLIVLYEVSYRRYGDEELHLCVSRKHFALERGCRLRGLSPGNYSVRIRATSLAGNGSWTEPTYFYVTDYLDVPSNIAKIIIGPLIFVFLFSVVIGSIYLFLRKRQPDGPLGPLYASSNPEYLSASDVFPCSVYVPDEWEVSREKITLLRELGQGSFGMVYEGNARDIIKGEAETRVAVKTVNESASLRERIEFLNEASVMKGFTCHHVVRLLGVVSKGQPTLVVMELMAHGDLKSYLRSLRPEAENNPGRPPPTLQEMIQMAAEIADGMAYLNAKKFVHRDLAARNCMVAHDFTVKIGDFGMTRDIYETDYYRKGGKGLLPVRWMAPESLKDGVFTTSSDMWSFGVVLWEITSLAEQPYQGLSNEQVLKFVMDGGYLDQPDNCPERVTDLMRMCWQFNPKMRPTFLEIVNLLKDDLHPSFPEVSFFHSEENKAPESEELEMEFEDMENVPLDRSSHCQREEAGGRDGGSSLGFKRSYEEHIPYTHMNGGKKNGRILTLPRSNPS
Insulin-like growth factor 1 receptor, sequence (P08069 31-736 limits assumed): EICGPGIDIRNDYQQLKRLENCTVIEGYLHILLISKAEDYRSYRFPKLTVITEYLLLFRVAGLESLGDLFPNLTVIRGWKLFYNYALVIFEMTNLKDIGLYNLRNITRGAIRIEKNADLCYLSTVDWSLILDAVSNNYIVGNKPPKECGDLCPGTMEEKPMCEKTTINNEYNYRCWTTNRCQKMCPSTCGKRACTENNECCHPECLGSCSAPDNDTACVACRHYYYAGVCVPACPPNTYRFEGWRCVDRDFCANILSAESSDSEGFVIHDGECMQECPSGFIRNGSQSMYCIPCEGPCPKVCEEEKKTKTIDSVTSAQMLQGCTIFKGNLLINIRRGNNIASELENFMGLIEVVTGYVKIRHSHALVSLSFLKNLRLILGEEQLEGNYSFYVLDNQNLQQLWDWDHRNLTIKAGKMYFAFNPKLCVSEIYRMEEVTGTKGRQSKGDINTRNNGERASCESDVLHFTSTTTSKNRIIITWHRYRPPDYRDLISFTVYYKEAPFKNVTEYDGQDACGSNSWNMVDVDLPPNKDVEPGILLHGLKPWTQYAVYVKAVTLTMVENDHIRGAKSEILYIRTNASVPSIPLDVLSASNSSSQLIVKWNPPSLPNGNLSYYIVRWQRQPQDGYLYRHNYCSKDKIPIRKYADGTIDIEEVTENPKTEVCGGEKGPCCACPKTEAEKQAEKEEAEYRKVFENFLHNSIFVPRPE
Insulin-like growth factor 1 receptor, sequence (P08069 741-1367 limits assumed): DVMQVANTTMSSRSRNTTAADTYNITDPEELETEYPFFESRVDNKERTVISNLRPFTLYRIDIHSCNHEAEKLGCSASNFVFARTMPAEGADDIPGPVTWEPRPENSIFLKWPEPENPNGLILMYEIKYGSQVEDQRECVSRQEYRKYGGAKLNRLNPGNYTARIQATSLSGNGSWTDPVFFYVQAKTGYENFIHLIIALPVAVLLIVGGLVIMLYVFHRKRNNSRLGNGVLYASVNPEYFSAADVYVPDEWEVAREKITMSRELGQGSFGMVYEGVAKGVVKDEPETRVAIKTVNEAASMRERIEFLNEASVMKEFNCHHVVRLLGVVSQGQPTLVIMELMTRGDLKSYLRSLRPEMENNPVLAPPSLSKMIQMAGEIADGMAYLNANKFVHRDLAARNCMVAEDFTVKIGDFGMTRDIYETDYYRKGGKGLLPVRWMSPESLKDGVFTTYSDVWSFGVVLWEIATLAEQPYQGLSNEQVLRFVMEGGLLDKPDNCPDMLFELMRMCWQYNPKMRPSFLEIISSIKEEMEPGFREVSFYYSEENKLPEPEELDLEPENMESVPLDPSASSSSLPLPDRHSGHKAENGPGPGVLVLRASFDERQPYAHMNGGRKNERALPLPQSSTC

Row | IC50 [1] | IC50 [2] | IC50 [3] | IC50 [4] | IC50 [5] | SMILES
1 | > 40 µM | > 40 µM | > 40 µM | > 40 µM | > 40 µM | COc1nc(C)cc2c1-c1[nH]c3ccccc3c1CCN2CCc1ccccc1
2 | > 40 µM | > 40 µM | > 40 µM |  |  | Clc1nccc2c1-c1[nH]c3ccc(Br)cc3c1CCN2CC(c1ccccc1)c1ccccc1
3 | 11.8 µM | 19.8 µM | 12.4 µM | 12.6 µM | > 40 µM | Cc1cc(Cl)c2c(n1)N(CCc1ccccc1)CCc1c-2[nH]c2ccccc12
4 | 18 µM | 15.6 µM | 19.7 µM | 11.8 µM | 16.9 µM | Cc1cc2c(c(=O)[nH]1)-c1[nH]c3ccccc3c1CCN2CCc1ccccc1
5 | 8.3 µM | > 40 µM | > 40 µM |  |  | C[C@@H](c1ccccc1)N1CCc2c([nH]c3ccc(Br)cc23)-c2c(I)ccnc21
6 | 5.1 µM | 3.5 µM | 5.5 µM | 4.5 µM | 5.1 µM | COc1nc(C)cc2c1-c1[nH]c3cc(N4CCN(C)CC4)ccc3c1CCN2CCc1ccccc1
7 | 9.3 µM | > 40 µM | > 40 µM |  |  | Clc1nccc2c1-c1[nH]c3ccc(Br)cc3c1CCN2CCc1c[nH]c2ccccc12

Further lines, the molecule ahead of its results:

Row | SMILES | IC50 [1] | IC50 [2] | IC50 [3] | IC50 [4] | IC50 [5]
8 | Oc1ccc(CCN2CCc3c([nH]c4ccc(Br)cc34)-c3c(I)ccnc32)cc1 | 6.2 µM | 11.1 µM | 9.7 µM |  | 
9 | COc1cc(C)nc2c1-c1[nH]c3ccccc3c1CCN2CCc1ccccc1 | > 40 µM | > 40 µM | > 40 µM | > 40 µM | > 40 µM
10 | Oc1ccc(CCN2CCc3c([nH]c4ccc(Br)cc34)-c3c2ccnc3Cl)cc1 | 7.1 µM | > 40 µM | 12.5 µM |  | 
11 | C[C@@H](c1ccccc1)N1CCc2c([nH]c3ccc(Br)cc23)-c2c1ccnc2Cl | 5.8 µM | 11.9 µM | 12.9 µM |  | 
12 | Brc1ccc2[nH]c3c(c2c1)CCN(CC(c1ccccc1)c1ccccc1)c1nccc(I)c1-3 | 5 µM | > 40 µM | 8.6 µM |  | 
13 | Cc1cc2c(c(Cl)n1)-c1[nH]c3ccccc3c1CCN2CCc1ccccc1 | 21.3 µM | 30.5 µM | 26.1 µM | 24.7 µM | 33.5 µM
